This passage reports logP results from US9271905B2, “Process for preparing polyurea microcapsules” (Firmenich S.A., priority 2010, dated 2016).

The data set is described as follows: LogP of the perfume ingredients. In kind it is physicochemical. The conditions noted are these: perfume ingredients of Table 1a.

Like-named read-outs stand apart in the source and are kept apart here.

One may read the logP as a log measure of how a compound divides between an organic and an aqueous phase. As for `CCCCCCCCCC(C)C=O` (stereo not shown) [2-Methylundecanal], the lipophilicity (logP) (read-out: LogP) was 4.67.
The same measure, in the same setting: the figure for `CC12CCC(CC1=O)C2(C)C` (stereo not shown) [Camphor] is 3.04.
On to `CC1C(C)(C)C2=C(C(=O)CCC2)C1(C)C` (stereo not shown) [Cashmeran®, 1,2,3,5,6,7-Hexahydro-1,2,3,3-pentamethyl-4h-inden-4-one], for which the logP amounted to 4.31.
On the same count and under the same terms, for `C=CC(C)CCCC(C)(C)O` (stereo not shown) [Dihydromyrcenol] the value was 3.47; for `C=CC(C)CCCC(C)(C)OC(C)=O` (stereo not shown) [Dihydromyrcenyl acetate], 4.47.
Take `CC12CCC(CC1)C(C)(C)O2` [Eucalyptol]: under “read-out: LogP”, the logP stood at 3.13.
In the case of `CC(=O)C(C)=CC1C(C)=CCCC1(C)C` (stereo not shown) [Isoraldeine® 70, 3-Methyl-4-(2,6,6-trimethyl-2cyclohexen-1-yl)-3-buten-2-one], where the note is “read-out: LogP”, the logP worked out at 4.84.
The same measure, in the same setting: for `C=CC(C)(CCC=C(C)C)OC(C)=O` (stereo not shown) [Linalyl acetate] the value was 4.39; for `CC(C)[C@@H]1CC[C@@H](C)CC1=O` [Menthone], 2.87.
The same measure, in the same setting: for `CC(C)=CCCC1=CCC(C)(C=O)CC1` (stereo not shown) [Precyclemone B, 1-Methyl-4-(4-methyl-3-pentenyl)cyclohex-3-ene-1-carboxaldehyde] the value was 5.18.
